Assay results reported in patent EP0394553A2, “Use of fluorine containing pyridone carboxylic acid derivatives for preparing a medicament for the treatment of HIV infections” (DAIICHI PHARMACEUTICAL CO., LTD., priority 1989, dated 1990).
Read-outs that look alike come from different tables or passages of the source.

Key:
HIV (LAV 1) = test: microbe, parasite or virus in culture; details: for Viable cell count / Viral antigen-positive cell percentage: 4-day addition; for viability at 1 µg/mL / viability at 2.5 µg/mL / viability at 5 µg/mL / viability at 10 µg/mL: Human immunodeficiency virus 1, CCRF-CEM
Outline: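 CEM cells were infected with HIV LAV 1 at MOI 0.05 and cultured with test substance at 10, 5, 2.5 or 1 mcg/ml, with medium exchanged periodically up to 30 days. Viable cell count and percentage were measured by trypan blue, and antigen-positive cells by immunofluorescence with anti-HIV antiserum, at 4–30 days. Values are means of two wells.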

in vivo = details: mouse, po

For `CCn1cc(C(=O)O)c(=O)c2cc(F)c(N3CCNCC3)cc21` [NFLX, 1-ethyl-6-fluoro-1,4-dihydro-4-oxo-7-(1-piperazinyl)-3-quinolinecarboxylic acid], the Viable cell count (HIV (LAV 1); 1 mcg/ml, after 4 days) was 230 × 10⁴ cells/ml, the “Viral antigen-positive cell percentage” value (HIV (LAV 1); 1 mcg/ml, after 4 days) was 88% and the Viable cell count (HIV (LAV 1); 1 mcg/ml, after 7 days) was 52 × 10⁴ cells/ml. For the same compound, the “Viral antigen-positive cell percentage” value (HIV (LAV 1); 1 mcg/ml, after 7 days) was 75%, the Viable cell count (HIV (LAV 1); 1 mcg/ml, after 10 days) was 26 × 10⁴ cells/ml and the Viable cell count (HIV (LAV 1); 1 mcg/ml, after 20 days) was 0 × 10⁴ cells/ml. The Viable cell count (HIV (LAV 1); 1 mcg/ml, after 30 days) was 0 × 10⁴ cells/ml, the Viable cell count (HIV (LAV 1); 2.5 mcg/ml, after 4 days) was 240 × 10⁴ cells/ml and the “Viral antigen-positive cell percentage” value (HIV (LAV 1); 2.5 mcg/ml, after 4 days) was 93%. The Viable cell count (HIV (LAV 1); 2.5 mcg/ml, after 7 days) was 59 × 10⁴ cells/ml, the “Viral antigen-positive cell percentage” value (HIV (LAV 1); 2.5 mcg/ml, after 7 days) was 55% and the Viable cell count (HIV (LAV 1); 2.5 mcg/ml, after 10 days) was 40 × 10⁴ cells/ml. For the same compound, the Viable cell count (HIV (LAV 1); 2.5 mcg/ml, after 20 days) was 2 × 10⁴ cells/ml, the Viable cell count (HIV (LAV 1); 2.5 mcg/ml, after 30 days) was 70 × 10⁴ cells/ml and the “Viral antigen-positive cell percentage” value (HIV (LAV 1); 2.5 mcg/ml, after 30 days) was “≦1%”. The Viable cell count (HIV (LAV 1); 5 mcg/ml, after 4 days) was 230 × 10⁴ cells/ml, the “Viral antigen-positive cell percentage” value (HIV (LAV 1); 5 mcg/ml, after 4 days) was 83% and the Viable cell count (HIV (LAV 1); 5 mcg/ml, after 7 days) was 84 × 10⁴ cells/ml. The “Viral antigen-positive cell percentage” value (HIV (LAV 1); 5 mcg/ml, after 7 days) was 65%, the Viable cell count (HIV (LAV 1); 5 mcg/ml, after 10 days) was 86 × 10⁴ cells/ml and the Viable cell count (HIV (LAV 1); 5 mcg/ml, after 20 days) was 28 × 10⁴ cells/ml. For the same compound, the Viable cell count (HIV (LAV 1); 5 mcg/ml, after 30 days) was 330 × 10⁴ cells/ml, the “Viral antigen-positive cell percentage” value (HIV (LAV 1); 5 mcg/ml, after 30 days) was “≦1%” and the Viable cell count (HIV (LAV 1); 10 mcg/ml, after 4 days) was 180 × 10⁴ cells/ml. The “Viral antigen-positive cell percentage” value (HIV (LAV 1); 10 mcg/ml, after 4 days) was 92%, the Viable cell count (HIV (LAV 1); 10 mcg/ml, after 7 days) was 60 × 10⁴ cells/ml and the “Viral antigen-positive cell percentage” value (HIV (LAV 1); 10 mcg/ml, after 7 days) was 63%. The Viable cell count (HIV (LAV 1); 10 mcg/ml, after 10 days) was 250 × 10⁴ cells/ml, the “Viral antigen-positive cell percentage” value (HIV (LAV 1); 10 mcg/ml, after 10 days) was 50% and the Viable cell count (HIV (LAV 1); 10 mcg/ml, after 20 days) was 370 × 10⁴ cells/ml. The “Viral antigen-positive cell percentage” value (HIV (LAV 1); 10 mcg/ml, after 20 days) was 4%, the Viable cell count (HIV (LAV 1); 10 mcg/ml, after 30 days) was 400 × 10⁴ cells/ml and the “Viral antigen-positive cell percentage” value (HIV (LAV 1); 10 mcg/ml, after 30 days) was “≦1%”. The viability at 1 µg/mL (HIV (LAV 1); 96 h, read-out: Viable cell percentage, 1 mcg/ml, 4-day addition, after 4 days) was 94%, the viability at 2.5 µg/mL (HIV (LAV 1); 96 h, read-out: Viable cell percentage, 2.5 mcg/ml, 4-day addition, after 4 days) was 94% and the viability at 5 µg/mL (HIV (LAV 1); 96 h, read-out: Viable cell percentage, 5 mcg/ml, 4-day addition, after 4 days) was 94%. The viability at 10 µg/mL (HIV (LAV 1); 96 h, read-out: Viable cell percentage, 10 mcg/ml, 4-day addition, after 4 days) was 92%, the viability at 1 µg/mL (HIV (LAV 1); read-out: Viable cell percentage, 1 mcg/ml, 4-day addition, after 7 days) was 59% and the viability at 1 µg/mL (HIV (LAV 1); read-out: Viable cell percentage, 1 mcg/ml, 4-day addition, after 10 days) was 30%. It also gave a viability at 1 µg/mL (HIV (LAV 1); read-out: Viable cell percentage, 1 mcg/ml, 4-day addition, after 20 days) of 0%, a viability at 1 µg/mL (HIV (LAV 1); read-out: Viable cell percentage, 1 mcg/ml, 4-day addition, after 30 days) of 0% and a viability at 2.5 µg/mL (HIV (LAV 1); read-out: Viable cell percentage, 2.5 mcg/ml, 4-day addition, after 7 days) of 67%. For the same compound, the viability at 2.5 µg/mL (HIV (LAV 1); read-out: Viable cell percentage, 2.5 mcg/ml, 4-day addition, after 10 days) was 47%, the viability at 2.5 µg/mL (HIV (LAV 1); read-out: Viable cell percentage, 2.5 mcg/ml, 4-day addition, after 20 days) was 33% and the viability at 2.5 µg/mL (HIV (LAV 1); read-out: Viable cell percentage, 2.5 mcg/ml, 4-day addition, after 30 days) was 96%. For the same compound, the viability at 5 µg/mL (HIV (LAV 1); read-out: Viable cell percentage, 5 mcg/ml, 4-day addition, after 7 days) was 67%, the viability at 5 µg/mL (HIV (LAV 1); read-out: Viable cell percentage, 5 mcg/ml, 4-day addition, after 10 days) was 61% and the viability at 5 µg/mL (HIV (LAV 1); read-out: Viable cell percentage, 5 mcg/ml, 4-day addition, after 20 days) was 81%. It also gave a viability at 5 µg/mL (HIV (LAV 1); read-out: Viable cell percentage, 5 mcg/ml, 4-day addition, after 30 days) of 95%, a viability at 10 µg/mL (HIV (LAV 1); read-out: Viable cell percentage, 10 mcg/ml, 4-day addition, after 7 days) of 71% and a viability at 10 µg/mL (HIV (LAV 1); read-out: Viable cell percentage, 10 mcg/ml, 4-day addition, after 10 days) of 91%. The viability at 10 µg/mL (HIV (LAV 1); read-out: Viable cell percentage, 10 mcg/ml, 4-day addition, after 20 days) was 97%, the viability at 10 µg/mL (HIV (LAV 1); read-out: Viable cell percentage, 10 mcg/ml, 4-day addition, after 30 days) was 94% and the LD50 (in vivo) was ≥ 4000 mg/kg.
